PubChem BioAssay (NCI)
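Five concentrations, 48 hours, 96-well plates. TGI: concentration producing complete growth inhibition.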

Legend:
Assay in all cases: NCI anticancer screen, dose series, 48 h
[1] = system: HCC-2998 colon
[2] = system: M14 melanoma
[3] = system: NCI/ADR-RES ovarian
[4] = system: OVCAR-3 ovarian
[5] = system: OVCAR-5 ovarian
[6] = system: RPMI-8226 leukemia
[7] = system: UACC-257 melanoma
[8] = system: UO-31 renal

Row | SMILES | TGI [1] [µM] | TGI [2] [µM] | TGI [3] [µM] | TGI [4] [µM] | TGI [5] [µM] | TGI [6] [µM] | TGI [7] [µM] | TGI [8] [µM]
1 | CC1=NN2C(=N)/C(=C/c3ccc(F)cc3)C(=O)N=C2S1 | > 100 | > 100 | 28.5 | > 100 | > 100 | > 100 | > 100 | > 100
2 | CS(=O)(=O)Nc1ccc2ccccc2c1 | > 100 | > 100 | > 100 | > 100 | > 100 | > 100 | > 100 | > 100
3 | CC[C@H](NC(=O)OC(C)(C)C)C(=O)NCP(=O)(OCc1ccc([N+](=O)[O-])cc1)OCc1ccc([N+](=O)[O-])cc1 | > 100 | > 100 | > 100 | > 100 | > 100 | > 100 | 26.9 | 80.2
4 | CN1C2=Nc3n(c4ccccc4[n+]3C)CN2c2ccccc21 | – | > 100 | > 100 | 34.7 | > 100 | > 100 | > 100 | > 100
5 | CCC1(CC)C(=O)N(C(=O)c2cc(OC)c(OC)c(OC)c2)N(C(=O)c2cc(OC)c(OC)c(OC)c2)C1=O | > 50 | > 50 | > 50 | > 50 | > 50 | > 50 | > 50 | > 50
6 | CCOC(=O)c1csc(NC(=O)CCN2CCN(C)CC2)n1 | > 100 | > 100 | > 100 | > 100 | > 100 | > 100 | > 100 | > 100
7 | CC1(C)OCC(C2OC(C)(C)OC2[C@H]2O[C@@]3(O)[C@H]4[C@H](C=CC[C@@H]42)[C@@H](OCc2ccccc2)[C@H](OCc2ccccc2)[C@H]3OCc2ccccc2)O1 (some centres undefined) | – | > 100 | > 100 | > 100 | > 100 | – | > 100 | 72.3
8 | O=C(NC(C(F)(F)F)(C(F)(F)F)P(=O)(Cc1ccccc1)Cc1ccccc1)C(C(F)(F)F)C(F)(F)F | 49.8 | 34.8 | 44 | > 100 | 41.8 | 72 | 46.5 | –
9 | CSc1nc(Cl)c2c(n1)Sc1nc3ccccc3n1C2O (centres undefined) | 13.6 | > 100 | > 24.4 | > 26.5 | > 45 | 19.5 | > 100 | 24.3
10 | CCOC(=O)C(NC(=O)c1cccc(Cl)c1)(Nc1cccc(C)c1)C(F)(F)F (centres undefined) | 31.4 | – | 38.8 | – | – | > 100 | 71.5 | 32.7
11 | COc1cc2c(c(OC)c1)[C@H](C)N(Cc1ccccc1)C(C)C2 (some centres undefined) | > 100 | > 100 | – | – | – | > 100 | > 100 | > 100
12 | N#C/C(C(=O)NCc1ccccc1)=C(/N)N1CCCC1 | > 100 | > 100 | > 100 | > 100 | > 100 | > 100 | > 100 | > 100
13 | C[As+](C)(c1ccc(Br)c([N+](=O)[O-])c1)c1ccc(Br)c([N+](=O)[O-])c1.O=[N+]([O-])O | > 100 | > 100 | > 100 | > 100 | > 100 | > 100 | > 100 | > 100
14 | CC1(C)N=C(N)N=C(N)N1c1cccc(Cl)c1 | > 100 | > 100 | > 100 | > 100 | > 100 | – | > 100 | > 100
15 | C=C(C)[C@H]1CC23C(=O)[C@@](C)(C[C@H]2C1(C)C)C(=O)C(C(=O)C(C)C)=C3O | – | 31.4 | 27.8 | 37.7 | 40.8 | 27.9 | 62.3 | 39.2
16 | CCCCNC(=O)Cn1c2ccc(Br)cc2c2nc3ccccc3nc21 | – | > 100 | > 100 | > 100 | > 100 | > 100 | > 100 | > 100
17 | CC(C)(C)/C(O)=C\c1nc2cc(F)c(F)cc2[nH]c1=O | > 100 | > 100 | > 100 | – | – | – | > 100 | > 100
18 | CSc1nc(=O)c2nc(-c3cccs3)c(-c3cccs3)nc2n1C | > 100 | > 100 | > 100 | – | > 100 | > 100 | > 100 | > 100
19 | CNC(=S)N1CCN(C(C)=O)C1=S | > 100 | > 100 | > 100 | > 100 | > 100 | – | > 100 | > 100
20 | O=C(Nc1nn(C(=O)c2cccnc2)c(=O)s1)c1ccc(Cl)cc1 | > 100 | > 100 | > 100 | > 100 | > 100 | – | > 100 | 78.9
21 | CN1c2ccccc2C2=C(c3ccccc3)CC[C@@H](C(=O)N3C4CC5CC[C@@]4(CS3(=O)=O)C5(C)C)[C@@H]21 (some centres undefined) | – | > 100 | > 100 | > 100 | > 100 | > 100 | > 100 | > 100
22 | Clc1ccc(/C(=C/c2ccccc2)Cn2ccnc2)cc1 | > 100 | 65.6 | 66.6 | – | > 100 | 73.6 | > 100 | > 100
23 | CCC1([N+](=O)[O-])CN(N=O)C1 | – | > 100 | > 100 | > 100 | > 100 | > 100 | > 100 | > 100
24 | CC(=O)Oc1ccc2c(-c3ccccc3)c(Oc3ccc(Cl)cc3)c(=O)oc2c1 | 19.7 | 37 | – | 28.8 | 32.4 | > 100 | 37.8 | 28.4
25 | O=c1c2c3c(sc2nc2n1N=C(c1ccc(Br)cc1)CS2)CCCC3 | > 100 | > 100 | > 100 | > 100 | > 100 | – | > 100 | > 100
26 | Cc1cc(-c2ccccc2)nc2oc(=O)n(C)c12 | > 100 | > 100 | > 100 | > 100 | > 100 | – | > 100 | > 100
27 | Cc1ccc(C)c(COCCOCn2cc(N3CCOCC3)c(=O)[nH]c2=O)c1 | > 100 | > 100 | > 100 | – | > 100 | – | > 100 | > 100
